According to a melting point compilation (Tetko et al.; mined from patent text by program, amines drawn as free bases though some values may be those of a salt):

SMILES	melting point [°C]
Cc1c(NC(=O)c2ccc(OC[C@@H]3CCCO3)cc2)ccc2cc(CN3CCC(C)(O)CC3)[nH]c12	169
Cc1ncn(-c2ccc(C#N)c(F)c2)n1	133 to 134
O=C(O)C1=Cc2cc(C(F)(F)C(F)(F)F)ccc2OC1C(F)(F)F (centres undefined)	162 to 165
O=C(c1ccc(OC23CC4CC(CC(C4)C2)C3)cc1)N1CCCC1	111 to 113
CCCN(CCC)C1CCc2cc(NC(=O)C=NO)ccc2C1 (centres undefined)	110 to 112
CCN(CC(=O)O)c1ccc(C=O)cc1[N+](=O)[O-]	90
CCOP(=O)(OCC)C(CCc1cc(C)nc2c(I)c(-c3ccccc3)nn12)P(=O)(OCC)OCC	81 to 82
N#Cc1cccc(CSc2nnc(-c3ccc4ncc(-c5ccccn5)n4c3)o2)c1	192 to 193
COc1ccc(-c2ccc(Cl)nn2)c(O)c1	156 to 157
CN1Cc2c(C#C[Si](C)(C)C)ncn2-c2cccc(Cl)c2C1=O	186 to 187
COCCOCCOCCOCCOc1cc(NC(=O)OC(C)(C)C)c(NC(=O)CC(=O)c2cccc(C#N)c2)cc1C#Cc1ccccc1	135 to 136
Cc1c(Cc2ccc(C(C)C)cc2)c2c(c(C)c1NC(=O)CC(C)(C)C)C(C)(O)C(C)(C)O2 (centres undefined)	170 to 171
O=C(c1ccccc1)c1ccncc1Cl	49 to 51
CCc1nc2cc(/C=C/C(=O)NO)ccc2c(=O)n1CCc1ccccc1	209 to 211
CCCCOCCOc1ccc(-c2ccc(N3CCC(C)CC3)c(C=CC(=O)O)c2)cc1	159 to 160
CCC(O)=C1C(=O)OC(C)(C)OC1=O	43 to 46
N#Cc1ccccc1Oc1ccc(Cl)cc1	84 to 86
COC(=O)[C@H]1N[C@@H](c2cccnc2)[C@@H]([N+](=O)[O-])[C@@H]1[C@@H](OCc1ccccc1)C(C)C	70 to 71
CCSCC#Cc1cc(F)c2ncc(C(=O)NCc3ccc(Cl)cc3)c(O)c2c1	232 to 233
NC(=O)NC1CCCCCC1	203 to 204
COc1cc(C=Cc2c(CO)ccc(OC)c2OC)cc(OC)c1OC	120 to 121
Cc1ccc(OCCCCCCCCCCC(Cl)(Cl)C(=O)O)cc1	67 to 68
CCCC(CC(=O)Nc1ccccc1)(OC)OC	88
COc1ccc(C(=O)c2c(C)oc3ccc([N+](=O)[O-])cc23)cc1	167
CC(=O)c1cc(CBr)cc(CBr)c1	87 to 88

SMILES	melting point [°C]
O=c1c2ccccc2nc(-c2cc(-c3ccc(Cl)cc3)c(N3CCOCC3)s2)n1-c1ccc(Cl)cc1	240 to 243
C=Cc1c(C)c2cc3nc(c4c5[nH]c(cc6nc(cc1[nH]2)C(C)=C6CC)c(C)c5C(=O)C4)C(CCC(=O)OC)C3C (centres undefined)	217 to 219
CCC(CC)n1cc(Cl)nc(N2CCc3cc(OC)cc(C)c32)c1=O	164 to 165
CC(=O)N(C)CC(c1ccc(Cl)cc1)c1ccc(Cl)cc1	103 to 104
COC1(c2ccc3ccccc3c2)OOC12C1CC3CC(C1)CC2C3 (centres undefined)	116
COC(=O)c1ccc(OC(F)(F)F)c(O)c1	95 to 97
CCCCCCCCCCCCCCCCCCNC(=O)NCCN	108 to 127
Cc1cccc(NC(=O)NC2N=C(N3CCCCCC3)c3ccccc3N(C)C2=O)c1 (single isomer, unassigned; (+))	172 to 175
CCOC1Nc2c(ccc(C)c2OC(C)=O)C(=O)N2CCCC12 (centres undefined)	145 to 147
Nc1cccc(-c2ccc(-c3ccccc3)cc2)c1N	203 to 206
CC1(C)C(=O)N(CCCN(CCCN2C(=O)c3ccccc3C(C)(C)C2=O)Cc2ccccc2)C(=O)c2ccccc21	108
CCCOc1ccccc1-c1ccc([N+](=O)[O-])c(=O)[nH]1	198 to 200
CCOC(=O)Nc1sc(C)c(C#N)c1S(=O)(=O)NC(=S)NC(C)C	169 to 171
CCCCC[C@H](CC(=O)Nc1c(F)cc(F)cc1F)c1cccc2c1OCO2	88 to 89
CCOC(=O)NN(C(=O)NC)S(=O)(=O)c1ccccc1	138 to 142
O=C(c1c[nH]c2cc(F)ccc12)C(F)(F)F	234 to 235
COc1cc2c(Nc3ccc(Cl)cc3F)c(C#N)cnc2cc1OCc1ccccc1	241 to 243
O=C(O)Cc1ccc(-c2cn3cccnc3n2)cc1	264 to 265
CCOC(=O)C1=Cc2cc(Cl)cc(CO[N+](=O)[O-])c2OC1C(F)(F)F (centres undefined)	53
Cc1c(C(=O)N(N)c2ccccc2)nn(-c2ccc(Cl)cc2Cl)c1-c1ccc(Cl)s1	154 to 155
O=CC1(Br)C2CCC(CC2)C1c1ccccc1 (centres undefined)	65 to 66
CCOC(=O)C1C(=O)CC(C)(O)C(C(=O)OCC)C1c1cc(OC)c2oc(C)c(C)c2c1 (centres undefined)	157 to 158
CC(Oc1ccc(F)cc1)C(=O)O (centres undefined)	113 to 115
CC(C)c1ccc(OC(C)(Cc2ccc(OCCNC(=O)c3ccc(OCC(F)(F)C(F)F)nc3)cc2)C(=O)O)cc1 (centres undefined)	173 to 175
O=CNc1ccc2c(c1)nc(/C=C/c1ccccc1)n2-c1ccccn1	190 to 192

SMILES	melting point [°C]
O=c1c(N2CCNCC2)nccn1CCOc1cccc([N+](=O)[O-])c1	171
CCCCc1nc2c(N)nc3ccc(OCc4ccccc4)cc3c2n1CCCCN	161 to 164
CCCc1nc2c(N)nc3ccccc3c2n1CCOCCCSC	99 to 101
CC(C)(C)OC(=O)N1CC(CO)c2c1cc([N+](=O)[O-])c1ccccc21 (centres undefined)	176
Cc1ccc2oc(-c3ccccc3[N+](=O)[O-])cc2c1	83
CC(C)[C@H](NC(=O)N(C)Cc1cccnc1)C(=O)N[C@@H](Cc1ccccc1)[C@H](O)[C@@H](O)[C@H](Cc1ccccc1)NC(=O)[C@@H](NC(=O)N(C)Cc1ccccn1)C(C)C	92 to 94
O=C1[C@@H]2[C@H](O)CCN2C(=O)N1c1ccc([N+](=O)[O-])c2ccccc12 (relative stereo)	255 to 257
O=C(Nc1ccc(Cl)nc1)c1ccc(Cl)o1	143 to 144
CCOC(=O)c1cc2cc(NC(C)=O)ccc2n1C(=O)OC(C)(C)C	122 to 123
CCn1nc2c(N)nc(C)cc2c1CC(C)(C)O	134 to 135
CC(=NCCO)C1CCC2C3CCC4CC(O)C(N5CCOC(C)C5)CC4(C)C3CCC12C (centres undefined)	162 to 165
CC(C)c1nc(CO)n(CC2=CCC(=O)N=C2)c1Sc1cc(Cl)cc(Cl)c1	220
O=C(O)CCc1cc(OCC2CC2)nn1Cc1ccc(C(F)(F)F)cc1Cl	115 to 116
ON=C(c1ccccc1)c1cc(F)cc(F)c1	91 to 93
CC1CC2C3CC(Cl)C4=CC(=O)C=CC4(C)C3C(O)CC2(C)C1C(=O)CO (centres undefined)	128
CNC(=O)c1ccccc1Nc1nc(Nc2ccc3c(c2)CCC(NCC(F)(F)F)CC3)ncc1Cl (centres undefined)	202 to 203
ClCCCOc1ccccc1Nc1nc(Cl)nc2[nH]cnc12	205
O=C1C=CC(=O)C2=C1OCO2	106 to 107
CC1CN(C)CCC1Oc1cccc(NC(=O)c2ccc(F)cc2Cl)n1 (centres undefined)	155 to 160
CC#Cc1ncn2c1CN(C)C(=O)c1ccccc1-2	206 to 207
O=C1OCC(C(F)(F)F)N1c1nc(-c2ccc(Br)cc2)cs1 (centres undefined)	154 to 156
CC1(C)CC(CS(=O)(=O)NCC(=O)O)c2cc(OCc3ccccc3)ccc2O1 (centres undefined)	131
NC(=O)N1c2ccccc2CC(=NNc2ccccc2)c2ccccc21	220 to 221
Cn1nc(-c2cccc(F)c2)n(C)c1=S	126 to 128
COc1ccc(C2=NN(CC(=O)Nc3ccc(C4=NNC(=O)CC4C)cc3)C(=O)C3CC=CCC23)cc1OC (centres undefined)	139 to 141

SMILES	melting point [°C]
NS(=O)(=O)c1ccc(-n2nc(C(F)F)cc2C2CCCCC2)cc1	199 to 203
Cc1nc2cccc(F)c2c(=O)n1C1CCC(=O)NC1=O (centres undefined)	275 to 277
CN1C(=O)CC[C@]2(C)c3ccc(-c4ccc5ccccc5n4)cc3CC[C@@H]12	140 to 145
N=C(NS(=O)(=O)C=Cc1ccc([N+](=O)[O-])cc1)c1cccc([N+](=O)[O-])c1	230 to 232
CC(=O)NCS[C@@H]1CC(=O)N(Cc2ccc(Oc3ccc(F)cc3)nc2)C1	94 to 95
Cc1nn(-c2ccc(F)cc2F)cc1C(=O)O	245 to 247
Fc1ccc(-c2nc(=S)c3c(o2)CCCC3)cc1	148 to 149
Cc1[nH]cnc1CSCCNc1ncc(Cc2ccc(Cl)cc2)c(=O)[nH]1	204 to 206
O=C(NC1CCc2n[nH]cc2C1)[C@@H]1CCCN1C(=O)[C@@H](CC1CCCCC1)NS(=O)(=O)Cc1ccccc1 (some centres undefined)	106 to 109
Cc1ccc(CC2=NOS(=O)N2)cc1C (centres undefined)	127 to 130
Cc1ccsc1C(=O)c1sc(Nc2ccc(N3CCN(C)CC3)cc2)nc1N	237 to 238
C=C1SC(=O)N(c2ccc3cc(-c4ccc(OC)c(C5(C)CCCCC5)c4)ccc3c2)C1=O	268 to 271
COc1cc2sc(C3=NNC(=O)CC3C)cc2cc1OCCCN1CCCCC1 (centres undefined)	198 to 200
CC(=O)N1C(=CC(C#N)=C2OC(CO)CN2C)C(=O)c2ccccc21 (centres undefined)	218 to 220
COc1cccc(C=CC(=O)C2=C(O)C(=C(C)Nc3ccccc3N)C(=O)OC2=O)c1OC	212 to 215
Cc1nc(-n2ccc(OCc3ccc(C(F)(F)F)cc3)cc2=O)sc1C(=O)NCc1ccccc1	278 to 280
COCCOCOc1c(C(C)(C)C)cc(-c2nc(N)n[nH]2)cc1C(C)(C)C	233 to 235
CC(Oc1ccc2nc(N)sc2c1)c1c(F)ccc(Cl)c1F (centres undefined)	160
COC(=O)[C@@H](Cc1ccccc1)Oc1c(Br)cc(-c2c3ccccc3c(Br)c3sc4ccccc4c23)cc1Br	138 to 140
O=C(O)c1ccc(/C=C\C(c2cc(Cl)c(Cl)c(Cl)c2)C(F)(F)F)cc1Br (centres undefined)	54 to 64
N#CCN(CP(=O)(Oc1ccccc1)Oc1ccccc1)N=O	76 to 78
NS(=O)(=O)c1cc(C(=O)O)cc(S)c1Cl	263 to 264
CCCc1ccc(O)c2c(=O)cc(-c3nnn[nH]3)oc12	242 to 245
O=c1ncc(C(F)(F)F)cn1COc1ccc(Cl)cc1	98
